Source: patent publication US20200147116A1, “Use of Paeoniflorin-6'-O-benzenesulfonate in treatment of Sjögren's syndrome” (NINGBO ZHIMING BIOTECHNOLOGY CO., LTD., priority 2017, published 2020)
Where “and” joins values, the source holds several entries; their conditions need not be identical. Identical values can stand only once. Marks after values point to notes of the source that are not given here.

Tests used:
Type in all cases: in vivo
[1] = system: submaxillary gland in SS mice; test: Histopathological examination and grading of submaxillary gland in SS mice (H&E, Chisholm-Mason scale); conditions: two weeks of administration, four mice of each group
Protocol: (§1) Mice were sacrificed after two weeks of administration, and then submaxillary glands of four mice of each group were removed and pathologically observed. At first, the submaxillary gland should be fixed in 10% buffered formalin for 24 h, followed by washing, dehydration and clearing, wax-filling, embedding, sectioning and finally H&E staining. […] Results were graded pathologically.
(§2) Note: The histological findings graded of submaxillary glands according to the Chisholm-Mason scale; grade 0, absence of lymphocytic infiltration; grade I, slight lymphocytic infiltration; grade II, moderate lymphocytic infiltration; grade III, one focus of lymphocytic infiltration per 4 mm^2 tissue; grade IV, more than one focus of lymphocytic infiltration per 4 mm^2 tissue (Note: One focus of lymphocytic infiltration has been defined as an aggregate of 50 or more lymphocytes gathered in the labial gland stroma per 4 mm^2 of tissue.

[2] = system: submaxillary glands in NOD mice; test: Pathological grading of submaxillary glands in NOD mice; conditions: NOD mice
Protocol: as §1, §2

NOD mice = test: Saliva amount in NOD mice; conditions: NOD mice; for Saliva amount in NOD mice, Pre-administration: baseline before administration
Protocol: Before measurement, mice were anesthetized via intraperitoneal injection of 0.05 ml of 2.4% pentobarbital sodium, and the satisfactory anesthesia was smooth breathing, corneal reflex disappearance and limb muscle relaxation. After complete anesthesia, a mouse was placed in slightly tilted trendelenburg position, and its body was kept warm using the heater. The mouse was injected intraperitoneally with 0.1 ml of 0.025 mg/ml Pilocarpine, and 5 min later, a weighed cotton ball was placed in the mouth of the mouse for 10 min. After taking the ball out, the saliva weight of mice was measured by the wet weight method.
Therapeutic effects of on Sjögren's syndrome CP-25 in NOD mice.

[3] = system: Sjögren's syndrome model mice (C57BL/6 female mice); test: Saliva amount in induced Sjögren's syndrome model mice (wet weight method after pilocarpine); conditions: for Saliva amount in SS mice, Pre-administration / Saliva amount, Pre-administration: baseline before administration; for Saliva amount, One week after: one week of administration; for Curative effect judged on saliva amount after one week of medication: high dose of CP-25, TGP, Pae, HCQ at the doses of Table 3
Protocol: […] Water intake, saliva amount and submaxillary gland pathological analysis and score were determined respectively, on the day before administration, the 7th day and 14th day after administration. The therapeutic effects of CP-25 on Sjögren's syndrome were evaluated by comparison of changes of each index before and after treatment. 2 Sjögren's syndrome model mice: C57BL/6 female mice housed in a SPF environment with successful modeling (The animal model was made via repeated multi-point intracutaneous injection of submaxillary gland homogenate of homologous mice to tail and back of mice). The animal model was made via repeated multi-point intracutaneously injection of submaxillary gland homogenate of homologous mice to tail and back of mice, and the mice with successful modeling were randomly assigned to each group according to comprehensive conditions of mice. At the same time, the average weight and status of each group of mice should be as close as possible. […] […] High dose of said pharmaceutical should be incubated for half an hour before use. Before measurement, mice were anesthetized via intraperitoneal injection of 0.05 ml of 2.4% pentobarbital sodium, and the satisfactory anesthesia was smooth breathing, corneal reflex disappearance and limb muscle relaxation. After complete anesthesia, a mouse was placed in slightly tilted trendelenburg position, and its body was kept warm using the heater. The mouse was injected intraperitoneally with 0.1 ml of 0.025 mg/ml Pilocarpine, and 5 min later, a weighed cotton ball was placed in the mouth of the mouse for 10 min. After taking the ball out, the saliva weight of mice was measured by the wet weight method.

NOD model mice = test: Organic indexes (spleen, submaxillary gland, thymus) in NOD model mice; conditions: 70 mg/kg
SS mice = test: Organic indexes (spleen, submaxillary gland, thymus) in SS mice; conditions: 70 mg/kg
Description: 2 Sjögren's syndrome model mice: C57BL/6 female mice housed in a SPF environment with successful modeling (The animal model was made via repeated multi-point intracutaneous injection of submaxillary gland homogenate of homologous mice to tail and back of mice). The animal model was made via repeated multi-point intracutaneously injection of submaxillary gland homogenate of homologous mice to tail and back of mice, and the mice with successful modeling were randomly assigned to each group according to comprehensive conditions of mice. At the same time, the average weight and status of each group of mice should be as close as possible. Paeoniflorin-6′-O-benzenesulfonate, white crystalline powder, purity 98.5%, was dissolved in trace ethanol (75 mg of CP-25 was soluble in 40 μl of ethanol), and then sodium carboxymethylcellulose was added to formulate a suspension of CP-25. Corresponding dose gradient, low dose (17.5 mg/kg), medium dose (35 mg/kg) and high dose (70 mg/kg) of said pharmaceutical should be prepared before medication, stored in 4° C. refrigerator for use. High dose of said pharmaceutical should be incubated for half an hour before use.

CCN(CCO)CCCC(C)Nc1ccnc2cc(Cl)ccc12 (stereo not shown) [HCQ, hydroxychloroquine, reference compound]
Score: mice with submaxillary gland pathology Grade 0 ([1]; 80 mg/kg): 0
Score: mice with submaxillary gland pathology Grade I ([1]; 80 mg/kg): 0
Score: mice with submaxillary gland pathology Grade II ([1]; 80 mg/kg): 0
Score: mice with submaxillary gland pathology Grade III ([1]; 80 mg/kg): 3
Score: mice with submaxillary gland pathology Grade IV ([1]; 80 mg/kg): 1^#
Score: mice with submaxillary gland pathology Grade 0 ([2]; 80 mg/kg): 0
Score: mice with submaxillary gland pathology Grade I ([2]; 80 mg/kg): 0
Score: mice with submaxillary gland pathology Grade II ([2]; 80 mg/kg): 0
Score: mice with submaxillary gland pathology Grade III ([2]; 80 mg/kg): 3
Score: mice with submaxillary gland pathology Grade IV ([2]; 80 mg/kg): 1 ^#
Saliva amount in NOD mice, One week after administration (NOD mice; 80 mg/kg): 17.00 ± 1.61 mg/each mouse/10 min
Saliva amount in NOD mice, Two weeks after administration (NOD mice; 80 mg/kg): 17.00 ± 1.41 mg/each mouse/10 min
Saliva amount in NOD mice, Pre-administration (NOD mice; dose group 80 mg/kg): 19.17 ± 3.18 mg/each mouse/10 min
Saliva amount in SS mice, One week after administration ([3]; Example 1, C57BL/6 SS mice, 80 mg/kg): 18.17 ± 3.65 mg/each mouse/10 min
Saliva amount in SS mice, Pre-administration ([3]; Example 1, C57BL/6 SS mice, dose group 80 mg/kg): 23.17 ± 2.79 mg/each mouse/10 min
Saliva amount, One week after ([3]; SS model mice, 80 mg/kg): 18.17 ± 3.65 mg/10 min
Saliva amount, Pre-administration ([3]; SS model mice, dose group 80 mg/kg): 23.17 ± 2.79 mg/10 min
Curative effect judged on saliva amount after one week of medication ([3]; SS model mice): did not show apparent effect

C[C@@]12C[C@@]3(O)O[C@@H](O1)[C@]1(COC(=O)c4ccccc4)[C@H]3C[C@@]12O[C@@H]1O[C@H](CO)[C@@H](O)[C@H](O)[C@H]1O [Pae, Paeoniflorin]
Score: mice with submaxillary gland pathology Grade 0 ([1]; 70 mg/kg): 0
Score: mice with submaxillary gland pathology Grade I ([1]; 70 mg/kg): 0
Score: mice with submaxillary gland pathology Grade II ([1]; 70 mg/kg): 0
Score: mice with submaxillary gland pathology Grade III ([1]; 70 mg/kg, 70 mg/kg): 2 and 1
Spleen index (NOD model mice): 5.3 ± 0.5 mg/g
Submaxillary gland index (NOD model mice): 4.5 ± 0.5^ mg/g
Thymus index (NOD model mice): 1.0 ± 0.1 mg/g
Spleen index (SS mice): 9.15 ± 1.44 mg/g
Submaxillary gland index (SS mice): 3.71 ± 0.68 mg/g
Thymus index (SS mice): 0.85 ± 0.23 mg/g
Score: mice with submaxillary gland pathology Grade 0 ([2]; 70 mg/kg): 0
Score: mice with submaxillary gland pathology Grade I ([2]; 70 mg/kg): 0
Score: mice with submaxillary gland pathology Grade II ([2]; 70 mg/kg): 0
Score: mice with submaxillary gland pathology Grade III ([2]; 70 mg/kg): 1
Score: mice with submaxillary gland pathology Grade IV ([2]; 70 mg/kg): 3
Saliva amount in NOD mice, One week after administration (NOD mice; 70 mg/kg): 15.40 ± 1.62 mg/each mouse/10 min
Saliva amount in NOD mice, Two weeks after administration (NOD mice; 70 mg/kg): 14.75 ± 1.25 mg/each mouse/10 min
Saliva amount in NOD mice, Pre-administration (NOD mice; dose group 70 mg/kg): 19.83 ± 1.94 mg/each mouse/10 min
Saliva amount in SS mice, One week after administration ([3]; Example 1, C57BL/6 SS mice, 70 mg/kg): 17.01 ± 2.10 mg/each mouse/10 min
Saliva amount in SS mice, Two weeks after administration ([3]; Example 1, C57BL/6 SS mice, 70 mg/kg, two weeks): 17.17 ± 2.72^ mg/each mouse/10 min
Saliva amount in SS mice, Pre-administration ([3]; Example 1, C57BL/6 SS mice, dose group 70 mg/kg): 23.50 ± 2.89 mg/each mouse/10 min
Saliva amount, One week after ([3]; SS model mice, 70 mg/kg): 17.01 ± 2.10 mg/10 min
Saliva amount, Two weeks after ([3]; SS model mice, 70 mg/kg, two weeks of administration): 17.17 ± 2.72^ mg/10 min
Saliva amount, Pre-administration ([3]; SS model mice, dose group 70 mg/kg): 23.50 ± 2.89 mg/10 min
Curative effect judged on saliva amount after one week of medication ([3]; SS model mice): did not show apparent effect
